The values below come from PMC11995724, “Antibiotic target discovery by integrated phenotypic and activity-based profiling of electrophilic fragments” (Cell chemical biology, 2025).

Structures can show the parent of a compound that is named as a salt.

The data set can be described thus: in vitro. The following applies: human, hek293t cells.
Procedure: Mammalian cytotoxicity measurement was performed using Cell Titer-Glo 2.0 Cell Viability Assay (Promega, G9243) according to the manufacturer protocol. In brief, mammalian cells were seeded into 384-well white plates (Greiner, 781080) and incubated at 37°C for one day. Compounds from the Cys-Library were dispensed into the assay plate using epMotion 96. The plates were then incubated at 37°C for two days. An equal volume of Cell Titer-Glo 2.0 reagent was added into each well of the assay plate using epMotion 96 and incubated at 22°C for 10 min, followed by luminescence measurement using a Cytation 5 plate reader (BioTek).
Broadly, the viability is a read-out of living cells in per cent, often relative to untreated cells. On to `CN(C)S(=O)(=O)c1cccc(NC(=O)CCl)c1` [4-J08, 2-chloro-N-[3-(dimethylsulfamoyl)phenyl]acetamide], for which the viability at 48 h, 25 µM stood at 0.946%.
As for `O=C(CCl)Nc1ccc(Oc2ccccc2)cc1` [4-J09, 2-chloro-N-(4-phenoxyphenyl)acetamide], the figure is -0.178%.
In the case of `O=C(CCl)Nc1ccc(OC(F)F)cc1` [4-J10, 2-chloro-N-[4-(difluoromethoxy)phenyl]acetamide], the viability at 48 h, 25 µM worked out at 1.07%.
The same measure for `COc1ccc(C(NC(=O)CCl)c2ccccc2)cc1` (centres unmarked) [4-J11, 2-chloro-N-[(4-methoxyphenyl)(phenyl)methyl]acetamide]: 0.827%; for `CCc1cc(SC#N)cc(CC)c1NC(=O)CCl` [4-J12, 2-chloro-N-[4-(cyanosulfanyl)-2,6-diethylphenyl]acetamide]: 84.8%.
Regarding `CC(Cl)C(=O)NC(=O)NC1CCS(=O)(=O)C1` (centres unmarked) [4-J13, 3-(2-chloropropanoyl)-1-(1,1-dioxo-1lambda6-thiolan-3-yl)urea], the viability at 48 h, 25 µM stood at 94.7%.
The same measure for `O=C(CCl)NC(c1ccccc1)c1cccs1` (centres unmarked) [4-J14, 2-chloro-N-[phenyl(thiophen-2-yl)methyl]acetamide]: 1.95%.
In the case of `Cc1ccc(NC(=O)C(C)Cl)cc1` (centres unmarked) [4-J15, 2-chloro-N-(4-methylphenyl)propanamide], the viability at 48 h, 25 µM was 92.1%.
As for `CCOc1ccc(NC(=O)CCl)cc1S(=O)(=O)N1CCCC1` [4-J16, 2-chloro-N-[4-ethoxy-3-(pyrrolidine-1-sulfonyl)phenyl]acetamide], the figure is 1.41%.
Turning to `CC(Cl)C(=O)Nc1ccc([N+](=O)[O-])cc1Cl` (centres unmarked) [4-J17, 2-chloro-N-(2-chloro-4-nitrophenyl)propanamide], the viability at 48 h, 25 µM turned out to be 85.5%.
In the case of `O=C(CCl)N(Cc1ccco1)C12CC3CC(CC(C3)C1)C2` [4-J18, N-(adamantan-1-yl)-2-chloro-N-[(furan-2-yl)methyl]acetamide], the viability at 48 h, 25 µM was 1.5%.
For the compound `COC(=O)c1c(NC(=O)CCl)sc2c1CCC(C(C)(C)C)C2` (centres unmarked) [4-J19, methyl 6-tert-butyl-2-(2-chloroacetamido)-4,5,6,7-tetrahydro-1-benzothiophene-3-carboxylate], the viability at 48 h, 25 µM amounted to 69.6%.
Consider `O=C(CN1CCN(C(=O)CCl)CC1)Nc1ccc(F)cc1` [4-J20, 2-[4-(2-chloroacetyl)piperazin-1-yl]-N-(4-fluorophenyl)acetamide hydrochloride], for which the viability at 48 h, 25 µM came out at 1.34%.
Consider `O=C(CCl)NCCc1nc2c(s1)CCCCC2` [4-J21, 2-chloro-N-(2-{4H,5H,6H,7H,8H-cyclohepta[d][1,3]thiazol-2-yl}ethyl)acetamide], for which the viability at 48 h, 25 µM is 15%.
The same measure for `CN(C)S(=O)(=O)c1ccccc1CNC(=O)CCl` [4-J22, 2-chloro-N-{[2-(dimethylsulfamoyl)phenyl]methyl}acetamide]: 1.7%; for `Cc1ccc(Oc2ccc(NC(=O)CCl)cc2)cc1` [4-K03, 2-chloro-N-[4-(4-methylphenoxy)phenyl]acetamide]: 0.0354%; for `Cc1cc(C)cc(-c2cc(NC(=O)CCl)n(-c3ccccc3)n2)c1` [4-K04, 2-chloro-N-[3-(3,5-dimethylphenyl)-1-phenyl-1H-pyrazol-5-yl]acetamide]: -0.323%.
For `CN(CC(=O)Nc1ccccc1C(F)(F)F)C(=O)CCl` [4-K05, 2-chloro-N-methyl-N-({[2-(trifluoromethyl)phenyl]carbamoyl}methyl)acetamide], the viability at 48 h, 25 µM stood at 0.506%.
The same measure for `Cc1ccc2sc(N(Cc3ccccc3)C(=O)CCl)nc2c1C` [4-K06, N-benzyl-2-chloro-N-(4,5-dimethyl-1,3-benzothiazol-2-yl)acetamide]: -0.0749%.
As for `CCN(CC)S(=O)(=O)c1ccc(NC(=O)CCl)cc1` [4-K07, 2-chloro-N-[4-(diethylsulfamoyl)phenyl]acetamide], the figure is 0.364%; as for `CC(C)OC(=O)c1ccc(NC(=O)C(C)Cl)cc1` (centres unmarked) [4-K08, propan-2-yl 4-(2-chloropropanamido)benzoate], 76.3%.
As for `O=C(CCl)Nc1cc(Cl)cc(Cl)c1` [4-K09, 2-chloro-N-(3,5-dichlorophenyl)acetamide], the figure is 1.41%.
Regarding `CC(Cl)C(=O)Nc1ccc2c(c1)OCCCO2` (centres unmarked) [4-K10, 2-chloro-N-(3,4-dihydro-2H-1,5-benzodioxepin-7-yl)propanamide], the viability at 48 h, 25 µM stood at 85.4%.
In the case of `CC(C)C(NC(=O)CCl)c1ccccc1` (centres unmarked) [4-K11, 2-chloro-N-(2-methyl-1-phenylpropyl)acetamide], the viability at 48 h, 25 µM was determined as 3.98%.
As for `COc1cc([N+](=O)[O-])ccc1NC(=O)C(C)Cl` (centres unmarked) [4-K12, 2-chloro-N-(2-methoxy-4-nitrophenyl)propanamide], the figure is 91.3%.
The same measure for `CC(C)N(C)S(=O)(=O)c1ccc(NC(=O)CCl)cc1` [4-K13, 2-chloro-N-{4-[methyl(propan-2-yl)sulfamoyl]phenyl}acetamide]: 1.64%; for `CC(Cl)C(=O)NCCc1ccccc1` (centres unmarked) [4-K14, 2-chloro-N-(2-phenylethyl)propanamide]: 102%.
As for `Cc1cc(N(CCC#N)C(=O)CCl)ccc1Cl` [4-K15, 2-chloro-N-(4-chloro-3-methylphenyl)-N-(2-cyanoethyl)acetamide], the figure is 0.75%.
Regarding `CC1CC(C)CN(S(=O)(=O)c2ccc(NC(=O)CCl)cc2)C1` (centres unmarked) [4-K16, 2-chloro-N-{4-[(3,5-dimethylpiperidin-1-yl)sulfonyl]phenyl}acetamide], the viability at 48 h, 25 µM worked out at 0.265%.
For `CCC(NC(=O)CCl)c1ccc(C)cc1` (centres unmarked) [4-K17, 2-chloro-N-[1-(4-methylphenyl)propyl]acetamide], the viability at 48 h, 25 µM was determined as 2.62%.
The same measure for `O=C(CCl)NC(c1ccc(F)cc1)c1cccs1` (centres unmarked) [4-K18, 2-chloro-N-[(4-fluorophenyl)(thiophen-2-yl)methyl]acetamide]: 0.21%; for `COc1ccc(C(NC(=O)CCl)C2CC2)cc1` (centres unmarked) [4-K19, 2-chloro-N-[cyclopropyl(4-methoxyphenyl)methyl]acetamide]: 2.83%; for `O=C(CCl)N1N=C(c2cccs2)CC1c1ccccc1O` (centres unmarked) [4-K20, 2-chloro-1-[5-(2-hydroxyphenyl)-3-(thiophen-2-yl)-4,5-dihydro-1H-pyrazol-1-yl]ethan-1-one]: -0.22%.
The same measure for `Cc1ccc(SCCNC(=O)CCl)cc1` [4-K21, 2-chloro-N-{2-[(4-methylphenyl)sulfanyl]ethyl}acetamide]: 1.65%.
The same measure for `O=C(CCl)N1N=C(c2ccc3ccccc3c2)CC1c1ccccc1` (centres unmarked) [4-K22, 2-chloro-1-[3-(naphthalen-2-yl)-5-phenyl-4,5-dihydro-1H-pyrazol-1-yl]ethan-1-one]: -0.201%; for `CSc1ccccc1NC(=O)CN(C)C(=O)CCl` [4-L03, 2-chloro-N-methyl-N-({[2-(methylsulfanyl)phenyl]carbamoyl}methyl)acetamide]: 0.451%; for `O=C(CCl)Nc1nc(-c2ccccc2)cs1` [4-L04, 2-chloro-N-(4-phenyl-1,3-thiazol-2-yl)acetamide]: -0.0639%.
For `COc1ccc(NC(=O)c2ccccc2NC(=O)CCl)cc1` [4-L05, 2-(2-chloroacetamido)-N-(4-methoxyphenyl)benzamide], the viability at 48 h, 25 µM is 0.046%.
As for `Cc1ccc(S(=O)(=O)N2CCCCC2)cc1NC(=O)CCl` [4-L06, 2-chloro-N-[2-methyl-5-(piperidine-1-sulfonyl)phenyl]acetamide], the viability at 48 h, 25 µM was 0.53%.
`Cc1ccc(NC(=O)CCl)cc1S(=O)(=O)N1CCOCC1` [4-L07, 2-chloro-N-[4-methyl-3-(morpholine-4-sulfonyl)phenyl]acetamide]: the viability at 48 h, 25 µM came out at 0.278%.
In the case of `O=C(CCl)Nc1c(F)c(F)c(F)c(F)c1F` [4-L08, 2-chloro-N-(2,3,4,5,6-pentafluorophenyl)acetamide], the viability at 48 h, 25 µM was determined as 1.92%.
The same measure for `CC(Cl)C(=O)Nc1ccc(SC(F)F)cc1` (centres unmarked) [4-L09, 2-chloro-N-{4-[(difluoromethyl)sulfanyl]phenyl}propanamide]: 71.9%; for `CCOc1ccc2nc(NC(=O)CCl)sc2c1` [4-L10, 2-chloro-N-(6-ethoxy-1,3-benzothiazol-2-yl)acetamide]: 0.621%; for `O=C(CCl)NC(Cc1ccccc1)c1ccccc1` (centres unmarked) [4-L11, 2-chloro-N-(1,2-diphenylethyl)acetamide]: 0.317%.
As for `O=C(CCl)N(Cc1cccs1)C1CCS(=O)(=O)C1` (centres unmarked) [4-L12, 2-chloro-N-(1,1-dioxo-1lambda6-thiolan-3-yl)-N-[(thiophen-2-yl)methyl]acetamide], the figure is 1.65%; as for `CC(Cl)C(=O)Nc1cccc(Cl)c1Cl` (centres unmarked) [4-L13, 2-chloro-N-(2,3-dichlorophenyl)propanamide], 81.1%; as for `O=C(CCl)N(Cc1ccco1)c1ccccc1` [4-L14, 2-chloro-N-[(furan-2-yl)methyl]-N-phenylacetamide], 1.2%.
As for `CCc1ccc(NC(=O)C(C)Cl)cc1` (centres unmarked) [4-L15, 2-chloro-N-(4-ethylphenyl)propanamide], the figure is 76.6%; as for `O=C(CCl)NCC(=O)Nc1ccc(F)c(F)c1` [4-L16, 2-chloro-N-{[(3,4-difluorophenyl)carbamoyl]methyl}acetamide], 1.48%.
As to `CC(Cl)C(=O)Nc1ccc(Cl)cc1Cl` (centres unmarked) [4-L17, 2-chloro-N-(2,4-dichlorophenyl)propanamide], the viability at 48 h, 25 µM is 81.6%.
The same measure for `O=C(CCl)N(c1ccccc1)C1CCCCC1` [4-L18, 2-chloro-N-cyclohexyl-N-phenylacetamide]: 0.523%.
As for `Cc1cc(C(C)(C)C)cc(C)c1NC(=O)CCl` [4-L19, N-(4-tert-butyl-2,6-dimethylphenyl)-2-chloroacetamide], the figure is 1.04%; as for `O=C(CCl)N1CCc2sccc2C1c1cccs1` (centres unmarked) [4-L20, 2-chloro-1-[4-(thiophen-2-yl)-4H,5H,6H,7H-thieno[3,2-c]pyridin-5-yl]ethan-1-one], -0.242%.
